# Measurements: patent US20250195521A1 (Revolution Medicines, Inc., priority 2020, published 2025)
# What was measured:
# KRAS Q61H = KRAS Q61H (Homo sapiens (Human), UniProt P01116+P62937, Q61H); experiment: Ras-Raf disruption/FRET/MOA assay (BRAF RBD, Cyclophilin A); type: biochemical
# Procedure, shortened: (§1)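 TR-FRET read after 1.5 h with 10 nM anti-His Eu-W1024 and 50 nM anti-GST APC, following 3 h at 25 °C of GMPPNP-loaded His6-Ras (12.5 nM), GST-BRAF RBD (50 nM) and Cyclophilin A (25 μM) with compound from 30 μM final, 10 points, 3-fold. IC50 reported; pH 7.3 HEPES, 100 mM NaCl.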
# NRAS Q61R = NRAS Q61R (Homo sapiens (Human), UniProt P01111+P62937, Q61R); experiment: as above; type: biochemical
# Procedure, shortened: (§2)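 TR-FRET readout: anti-His Eu-W1024 (10 nM) and anti-GST allophycocyanin (50 nM) added after 3 h, 25° C compound incubation, then 1.5 h more. Decrease in FRET ratio versus DMSO wells marks Ras:RAF disruption; IC50 reported.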
# NRAS WT = NRAS WT (Homo sapiens (Human), UniProt P01111+P62937); experiment: as above; type: biochemical
# Procedure, shortened: as §2
# [1] = system: K-Ras G12C (NCI-H358 cells); experiment: Potency assay: pERK in NCI-H358 cells; type: cell-based, human; settings: Homo sapiens; NCI-H358 cells, 4 hours; read-out: pERK EC50 (H358 KRAS G12C)
# Procedure, shortened: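 Cells plated the day before were exposed for 4 h at 37° C, 5% CO2 to a 10-point, 3-fold DMSO dilution series (10 mM top stock), in duplicate. Phospho-ERK was read by AlphaLISA SureFire Ultra or by In-Cell Western with DRAQ5 DNA stain, and IC50 came from a 4-parameter sigmoidal fit.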
# [2] = system: NCI-H358 cells (K-Ras G12C); experiment: CellTiter-Glo cell viability, NCI-H358; type: cell-based, human; settings: Homo sapiens, NCI-H358, 120 h, K-Ras G12C, 5-day treatment; read-out: H358 Cell Viability IC50
# Procedure, shortened: (§3)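 Five-day treatment of K-Ras mutant cells with directly dispensed compound; ATP-based luminescence endpoint. Percent of DMSO signal fit to four-parameter logistic curve.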
# [3] = system: Capan-1 cells (K-Ras G12V); experiment: CellTiter-Glo cell viability, Capan-1; type: cell-based, human; settings: Homo sapiens, CAPAN-1, 120 h, K-Ras G12V, 5-day treatment; read-out: Capan-1 Cell Viability IC50
# Procedure, shortened: as §3
# KRAS G12C = KRAS G12C (Homo sapiens (Human), UniProt P01116+P62937, G12C); experiment: Ras-Raf disruption/FRET/MOA assay (BRAF RBD, Cyclophilin A); type: biochemical; settings: read-out: KRAS G12C FRET IC50
# Procedure, shortened: as §1
# KRAS G12D = KRAS G12D (Homo sapiens (Human), UniProt P01116+P62937, G12D); experiment: as above; type: biochemical; settings: read-out: KRAS G12D FRET IC50
# Procedure, shortened: as §1
# KRAS G12S = KRAS G12S (Homo sapiens (Human), UniProt P01116+P62937, G12S); experiment: as above; type: biochemical; settings: read-out: KRAS G12S FRET IC50
# Procedure, shortened: as §1
# KRAS G12V = KRAS G12V (Homo sapiens (Human), UniProt P01116+P62937, G12V); experiment: as above; type: biochemical; settings: read-out: KRAS G12V FRET IC50
# Procedure, shortened: as §1
# KRAS G13C = KRAS G13C (Homo sapiens (Human), UniProt P01116+P62937, G13C); experiment: as above; type: biochemical; settings: read-out: KRAS G13C FRET IC50
# Procedure, shortened: as §1
# KRAS G13D = KRAS G13D (Homo sapiens (Human), UniProt P01116+P62937, G13D); experiment: as above; type: biochemical; settings: read-out: KRAS G13D FRET data IC50
# Procedure, shortened: as §1
# KRAS WT = KRAS WT (Homo sapiens (Human), UniProt P01116+P62937); experiment: as above; type: biochemical; settings: read-out: KRAS WT FRET data IC50
# Procedure, shortened: as §1
# NRAS G12C = NRAS G12C (Homo sapiens (Human), UniProt P01111+P62937, G12C); experiment: as above; type: biochemical; settings: read-out: NRAS G12C FRET data IC50
# Procedure, shortened: as §2
# Sequence of NRAS WT (P01111 whole entry): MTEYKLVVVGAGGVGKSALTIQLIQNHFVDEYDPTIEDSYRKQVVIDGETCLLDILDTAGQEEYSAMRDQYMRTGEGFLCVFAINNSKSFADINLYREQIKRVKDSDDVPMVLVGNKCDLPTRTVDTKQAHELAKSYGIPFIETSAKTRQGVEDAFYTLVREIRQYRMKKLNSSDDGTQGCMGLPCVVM
# Sequence of NRAS WT (P62937 whole entry): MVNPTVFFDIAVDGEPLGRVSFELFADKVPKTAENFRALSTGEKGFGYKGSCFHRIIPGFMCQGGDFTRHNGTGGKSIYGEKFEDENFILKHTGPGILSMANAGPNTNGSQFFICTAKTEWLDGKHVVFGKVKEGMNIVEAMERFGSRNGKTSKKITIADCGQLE
# Sequence of NRAS G12C (P01111 whole entry G12C): as the sequence (P01111 whole entry) above, with G12C counted along it
# Sequence of NRAS G12C (P62937 whole entry): as the sequence (P62937 whole entry) above
# Sequence of KRAS G13D (P01116 other isoform, or with tags, fused parts or gaps G13D): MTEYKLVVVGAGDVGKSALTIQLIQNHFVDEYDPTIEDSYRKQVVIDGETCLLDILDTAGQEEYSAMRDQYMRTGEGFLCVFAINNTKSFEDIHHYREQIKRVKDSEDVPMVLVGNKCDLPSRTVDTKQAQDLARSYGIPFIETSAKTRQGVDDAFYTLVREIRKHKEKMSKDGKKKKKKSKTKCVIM
# Sequence of KRAS G13D (P62937 whole entry): as the sequence (P62937 whole entry) above
# Sequence of KRAS G12V (P01116 other isoform, or with tags, fused parts or gaps G12V): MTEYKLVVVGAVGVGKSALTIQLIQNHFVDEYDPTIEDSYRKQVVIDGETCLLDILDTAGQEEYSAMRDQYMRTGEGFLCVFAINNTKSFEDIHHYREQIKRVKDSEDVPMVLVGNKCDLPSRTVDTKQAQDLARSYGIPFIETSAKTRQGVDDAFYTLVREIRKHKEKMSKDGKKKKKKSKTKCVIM
# Sequence of KRAS G12V (P62937 whole entry): as the sequence (P62937 whole entry) above
# Sequence of KRAS G13C (P01116 other isoform, or with tags, fused parts or gaps G13C): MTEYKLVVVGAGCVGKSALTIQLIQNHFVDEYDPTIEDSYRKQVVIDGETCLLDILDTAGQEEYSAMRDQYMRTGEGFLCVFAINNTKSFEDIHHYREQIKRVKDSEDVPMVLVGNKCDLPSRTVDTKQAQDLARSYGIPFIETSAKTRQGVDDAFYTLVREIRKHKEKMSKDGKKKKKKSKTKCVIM
# Sequence of KRAS G13C (P62937 whole entry): as the sequence (P62937 whole entry) above
# Sequence of KRAS WT (P01116 other isoform, or with tags, fused parts or gaps): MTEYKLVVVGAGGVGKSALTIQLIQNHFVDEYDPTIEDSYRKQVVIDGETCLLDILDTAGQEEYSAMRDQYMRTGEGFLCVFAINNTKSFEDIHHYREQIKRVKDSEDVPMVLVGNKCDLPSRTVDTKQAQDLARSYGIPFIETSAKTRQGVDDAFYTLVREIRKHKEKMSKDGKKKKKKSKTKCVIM
# Sequence of KRAS WT (P62937 whole entry): as the sequence (P62937 whole entry) above
# Sequence of KRAS G12D (P01116 other isoform, or with tags, fused parts or gaps G12D): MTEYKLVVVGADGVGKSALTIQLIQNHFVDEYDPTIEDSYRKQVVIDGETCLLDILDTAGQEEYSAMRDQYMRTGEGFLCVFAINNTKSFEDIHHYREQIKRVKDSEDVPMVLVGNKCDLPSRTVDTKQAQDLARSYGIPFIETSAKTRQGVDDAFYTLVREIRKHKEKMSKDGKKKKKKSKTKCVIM
# Sequence of KRAS G12D (P62937 whole entry): as the sequence (P62937 whole entry) above
# Sequence of KRAS G12S (P01116 other isoform, or with tags, fused parts or gaps G12S): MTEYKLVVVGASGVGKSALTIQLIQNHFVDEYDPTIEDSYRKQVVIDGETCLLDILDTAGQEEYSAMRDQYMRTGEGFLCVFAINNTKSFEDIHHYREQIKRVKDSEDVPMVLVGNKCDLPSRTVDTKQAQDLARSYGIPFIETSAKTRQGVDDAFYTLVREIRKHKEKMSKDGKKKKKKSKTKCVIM
# Sequence of KRAS G12S (P62937 whole entry): as the sequence (P62937 whole entry) above
# Sequence of KRAS Q61H (P01116 other isoform, or with tags, fused parts or gaps Q61H): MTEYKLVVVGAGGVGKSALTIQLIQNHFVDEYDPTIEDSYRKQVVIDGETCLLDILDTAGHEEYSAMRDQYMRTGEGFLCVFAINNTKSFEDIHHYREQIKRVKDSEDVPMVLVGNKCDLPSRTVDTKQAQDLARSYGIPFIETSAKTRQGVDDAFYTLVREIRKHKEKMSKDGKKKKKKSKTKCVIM
# Sequence of KRAS Q61H (P62937 whole entry): as the sequence (P62937 whole entry) above
# Sequence of KRAS G12C (P01116-2 other isoform, or with tags, fused parts or gaps G12C): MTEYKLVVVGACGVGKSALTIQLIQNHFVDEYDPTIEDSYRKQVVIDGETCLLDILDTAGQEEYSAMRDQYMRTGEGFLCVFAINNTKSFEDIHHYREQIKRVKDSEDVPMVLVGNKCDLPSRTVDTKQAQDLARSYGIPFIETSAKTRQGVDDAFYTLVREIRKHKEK
# Sequence of KRAS G12C (P62937 whole entry): as the sequence (P62937 whole entry) above
# Sequence of NRAS Q61R (P01111 whole entry Q61R): as the sequence (P01111 whole entry) above, with Q61R counted along it
# Sequence of NRAS Q61R (P62937 whole entry): as the sequence (P62937 whole entry) above
SMILES,IC50 (KRAS Q61H) [nM],IC50 (NRAS Q61R) [nM],IC50 (NRAS WT) [nM],EC50 [1] [nM],IC50 [2] [nM],IC50 [3] [nM],IC50 (KRAS G12C) [nM],IC50 (KRAS G12D) [nM],IC50 (KRAS G12S) [nM],IC50 (KRAS G12V) [nM],IC50 (KRAS G13C) [nM],IC50 (KRAS G13D) [nM],IC50 (KRAS WT) [nM],IC50 (NRAS G12C) [nM]
CCn1c(-c2cccnc2[C@H](C)OC)c2c3cc(ccc31)-c1csc(n1)C[C@H](NC(=O)[C@H](C(C)C)N(C)C(=O)N1CC(C#N)(N(C)C)C1)C(=O)N1CCC[C@H](N1)C(=O)OCC(C)(C)C2 [Compound A452],100 to 1000,100 to 1000,100 to 1000,< 5000,,,,,,,,,,
CCn1c(-c2cccnc2[C@H](C)OC)c2c3cc(ccc31)-c1csc(n1)C[C@H](NC(=O)[C@H](C(C)C)N(C)C(=O)N(C)N(C)C)C(=O)N1CCC[C@H](N1)C(=O)OCC(C)(C)C2 [Compound A454],10 to 100,,10 to 100,< 5000,10 to 100,10 to 100,10 to 100,100 to 1000,100 to 1000,10 to 100,100 to 1000,100 to 1000,10 to 100,10 to 100
CCn1c(-c2cccnc2[C@H](C)OC)c2c3cc(ccc31)-c1csc(n1)C[C@H](NC(=O)[C@H](C(C)C)N(C)C(=O)N1CCOC3(COC3)C1)C(=O)N1CCC[C@H](N1)C(=O)OCC(C)(C)C2 [Compound A475],10 to 100,,10 to 100,< 5000,,10 to 100,10 to 100,100 to 1000,100 to 1000,100 to 1000,100 to 1000,100 to 1000,10 to 100,10 to 100
CCn1c(-c2cccnc2[C@H](C)OC)c2c3cc(ccc31)-c1csc(n1)C[C@H](NC(=O)[C@H](C(C)C)N(C)C(=O)N1CC(Cc3cnn(C)c3)C1)C(=O)N1CCC[C@H](N1)C(=O)OCC(C)(C)C2 [Compound A500],10 to 100,,10 to 100,,,,10 to 100,100 to 1000,10 to 100,10 to 100,10 to 100,100 to 1000,10 to 100,10 to 100
CCn1c(-c2cccnc2[C@H](C)OC)c2c3cc(ccc31)-c1csc(n1)C[C@H](NC(=O)[C@H](C(C)C)N(C)C(=O)N1CC([C@@H](CO)OC)C1)C(=O)N1CCC[C@H](N1)C(=O)OCC(C)(C)C2 [Compound A514],10 to 100,100 to 1000,100 to 1000,,,10 to 100,10 to 100,100 to 1000,100 to 1000,100 to 1000,100 to 1000,100 to 1000,100 to 1000,10 to 100
CCn1c(-c2cccnc2[C@H](C)OC)c2c3cc(ccc31)-c1csc(n1)C[C@H](NC(=O)[C@H](C(C)C)N(C)C(=O)N1CCN3C(=O)CN(C)C[C@@H]3C1)C(=O)N1CCC[C@H](N1)C(=O)OCC(C)(C)C2 [Compound A536],10 to 100,,10 to 100,< 5000,< 10,10 to 100,10 to 100,100 to 1000,100 to 1000,100 to 1000,100 to 1000,100 to 1000,10 to 100,10 to 100
CCn1c(-c2cccnc2[C@H](C)OC)c2c3cc(ccc31)-c1csc(n1)C[C@H](NC(=O)[C@H](C(C)C)N(C)C(=O)N1CCC13COC3)C(=O)N1CCC[C@H](N1)C(=O)OCC(C)(C)C2 [Compound A560],10 to 100,,10 to 100,< 5000,10 to 100,100 to 1000,10 to 100,100 to 1000,100 to 1000,100 to 1000,100 to 1000,100 to 1000,10 to 100,10 to 100
